Reference: ChEMBL document CHEMBL1240525, “Synthesis of cyclic di-nucleotidic acids as potential inhibitors targeting diguanylate cyclase” (Bioorg Med Chem, 2010)
The source made the active and inactive calls. The calls are words filed in the database; no cut-off is given here.

Tests used:
Synechocystis sp. = test: Inhibition of Synechocystis sp. recombinant diguanylate cyclase Slr1143 expressed in Escherichia coli DH5alpha at 100 uM after 2 mins
[1] = Inhibition of Synechocystis sp. recombinant diguanylate cyclase Slr1143 expressed in Escherichia coli DH5alpha after 2 mins

Row | inhibition (Synechocystis sp.) | IC50 [1] [µM] | Structure (SMILES)
1 | Active | – | O=c1ccn([C@H]2O[C@@H]3COP(=O)(O)O[C@@H]4[C@H](O)[C@@H](n5ccc(=O)[nH]c5=O)O[C@H]4COP(=O)(O)O[C@H]3[C@H]2O)c(=O)[nH]1
2 | 60% | 68.9 | O=P1(O)OC[C@H]2O[C@H](n3cnc4c(O)ncnc43)[C@H](O)[C@@H]2OP(=O)(O)OC[C@@H]2O[C@H](n3cnc4c(O)ncnc43)[C@@H](O)[C@H]2O1
